According to US20220135666A1, “TREATMENT OF A DISEASE OF THE GASTROINTESTINAL TRACT WITH A S1P MODULATOR” (Progenity, Inc., priority 2017, published 2022):

Legend:
[1] = Tissue, plasma and GI content pharmacokinetics of tacrolimus, oral vs intra-cecal ingestible device (Example 10); parameters: species or system Yorkshire-Cross farm swine; details: in vivo
Procedure: The primary objective of this study was to compare the tissue, plasma, rectal sample, and GI content pharmacokinetics of tacrolimus through oral versus intra-cecal ingestible device delivery in normal Yorkshire-Cross farm swine.
(§1) No further randomization procedure was employed.
Animals in Group 1 received an ingestible device containing 0.8 mL of vehicle solution (80% alcohol, 20% HCO-60). Animals in Group 2 received orally […] liquid formulation of tacrolimus at 4 mg/0.8 mL per animal (Prograf: 5 mg/mL). Animals in Group 3 received intracecally an ingestible device containing tacrolimus at 1 mg in 0.8 mL per ingestible device. […]
Approximately 200˜400 mg of rectal content were collected, if available, with a fecal swab (Copan Diagnostics Nylon Flocked Dry Swabs, 502CS01). The fecal swab was pre-weighed and weighed after collection in the collection tube (Sterile Tube and Cap No Media, PFPM913S), and the sample weight was recorded. […]
For tissue necropsy, small intestine fluid and cecal fluid were collected separately from all the animals into two separate square plastic bottles, and stored at −20° C. The length and diameter of the cecum and the colon was measured from one animal in each group and recorded for reference. […] All samples were weighed, and the tissue sample weights were recorded. […]

[2] = Pharmacokinetic study of oral vs intra-cecal administration of tacrolimus (Example 13); parameters: species or system Yorkshire-Cross farm swine; details: female, Yorkshire-Cross, in vivo, 0.09 mg/kg
Excerpt: as §1

- level detected in tissue [1]: No measurable level
- Ratio Tissue (mean) (ng/g)/AUG(0-12 hr) (ng · hr/mL) ([2]; pig, 12 h): 0
- Trough (12 hr) ([2]; pig, 12 h): 0.568 ng/mL
- Kp at 12 h ([2]; swine): 0
- Ratio Tissue (mean) (ng/g)/Tough(12 hr)(ng/mL) ([2]; swine, 12 h): 0
SMILES: C=CC[C@@H]1/C=C(\C)C[C@H](C)C[C@H](OC)[C@H]2O[C@@](O)(C(=O)C(=O)N3CCCC[C@H]3C(=O)O[C@H](/C(C)=C/[C@@H]3CC[C@@H](O)[C@H](OC)C3)[C@H](C)[C@@H](O)CC1=O)[C@H](C)C[C@@H]2OC [tacrolimus]
